{
  "source": "paper PMC10352257",
  "about": "“In vivo effects of the alpha-synuclein misfolding inhibitor minzasolmin supports clinical development in Parkinson’s disease” (NPJ Parkinson's Disease, 2023)",
  "origin": "cited, not measured here",
  "tested_on": "Line 61 transgenic mice",
  "set-up": "method as in PMID 28585223",
  "conditions": "cited from earlier work",
  "data": [
    {"substance": "CLR01", "values": [
      {"measurement": "effect on gait deficits of Line 61 transgenic mice in round beam traversal test", "value": "improved"}
    ]}
  ]
}
